Experimental findings from US20130230486A1, “COMPOSITIONS AND METHODS TO INDUCE TARGETED APOPTOSIS” (priority 2010, published 2013) are described below.

One test relates to caspase-8. Nature of the test: Caspase-8 activation (Fas-induced apoptosis) in lung fibroblasts. Type of test: cell-based, human. As to conditions: MRC5. As for the experimental part:
To assess the effects of these cytokines on PTPN13 expression, non-diseased normal human lung fibroblasts (NHLF), fibrotic human lung fibroblasts (FHLF) and a fetal lung fibroblast cell line, MRC5 cells, were treated with TNF-α (10/ng/ml), IFN-γ (50 U/ml) or with both cytokines for 6 hours. PTPN13 expression was measured by quantitative PCR (FIG. 2A). The primary lung fibroblasts from normal and fibrotic lung had equivalent levels of PTPN13 expression to the MRC5 lung fibroblast cell line. […] Treatment with TNF-α alone caused a 40% decrease in PTPN13 expression. Combined exposure to TNF-α and IFN-γ decreased PTPN13 mRNA expression by 80%. Protein lysates from normal, fibrotic and MRC5 fibroblasts treated for 36 hours with TNF-α (10/ng/ml), IFN-γ (50 U/ml) or with both cytokines were then analyzed for PTPN13 expression. […]
In one exemplary method, to assess whether PTPN13 expression prevents Fas-induced apoptosis, PTPN13 expression was knocked-down using siRNA. […] Apoptosis was assayed by quantifying activation of caspase-3 and caspase-8 (FIG. 3C).
In death-receptor mediated apoptosis, formation of the DISC (Death-Inducing Signaling Complex) is essential for the initiation of apoptosis. […] The cells were lysed, immunoprecipitated with anti-Fas antibody, and co-immunoprecipitated FADD and caspase-8 were detected by immunoblotting. […]

The subject of another test is Fas phospho-Y291. Briefly: Tyrosine phosphorylation of Fas at tyrosine 291 by Western blot in MRC5 lung fibroblasts. Type of test: cell-based, human. As to conditions: pervanadate 150 μM, time dependent. As for the experimental part:
PTPN13 has been shown in astrocytoma cells to dephosphorylate Fas at tyrosine 291. Little is known about the regulatory function of tyrosine phosphorylation of Fas. In another exemplary embodiment, to assess the effect of TNF-α and IFN-γ sensitization on the levels of Fas tyrosine phosphorylation, MRC5 lung fibroblasts were treated with TNF-α and IFN-γ for increasing amounts of time. Because TNF-α is known to increase tyrosine phosphorylation of many proteins, such as MAP kinases and AKT, within minutes following stimulation, the kinetics of TNF-α and IFN-γ induced tyrosine phosphorylation of Fas were assessed. MRC5 lung fibroblasts were treated with TNF-α (10 ng/ml) and IFN-γ (50 U/ml) for up to 48 hours. The cells were lysed and analyzed by western blot for phosphorylated Fas, using a phospho-specific antibody for Fas phosho-Y291. TNF-α and IFN-γ increased tyrosine phosphorylation of Fas at tyrosine residue 291 beginning at 18 hours. […] The pervanadate treated MRC5 cells were lysed and analyzed the tyrosine phosphorylation of Fas by western blotting. […] We then detected phosphorylated Fas by Western blot, using a phospho-specific antibody for Fas tyrosine residue 291. […]
FIG. 5: Inhibition of tyrosine phosphatase activity sensitizes lung fibroblasts to Fas-induced apoptosis. […] Caspase-8 activation was measured by a fluorescence based assay. […]

On to pervanadate, for which, in the test on caspase-8 (150 μM pervanadate 2 hour pre-treatment, then Fas-activating antibody 250 ng/ml), the “caspase-8 activity over unstimulated cells” value turned out to be 6 fold. In the test with caspase-8 (150 μM pervanadate alone), the “caspase-8 activity above untreated cells” value is given as 2 fold. Also, the “tyrosine phosphorylation of Fas (Y291)” value with Fas phospho-Y291 is recorded as “increased”.
